Measured values as given in ChEMBL document CHEMBL4616601, “Meeting organometallic chemistry with drug discovery: CH activation enabled discovery of a new ring system of 12H-Indazolo[2,1-a]cinnolin-12-ones with anti-proliferation activity” (Bioorg Med Chem Lett, 2020).
Activity calls are given as the source filed them. How the calls were made is not given here.

Experiments:
PC-3 [1] = experiment: Antiproliferative activity against human PC3 cells assessed as inhibition of cell viability at 0.5 to 5 uM after 72 hrs by CCK8 assay; assay type: functional, cell-based
PC-3 [2] = experiment: Antiproliferative activity against human PC3 cells at 0.5 uM assessed as inhibition of cell viability after 72 hrs by CCK-8 assay relative to control; assay type: functional; conditions: PC-3, 72 h
PC-3 [3] = experiment: Antiproliferative activity against human PC3 cells assessed as reduction in cell viability after 72 hrs by CCK8 assay; assay type: functional, cell-based; conditions: PC-3, 72 h
PANC-1 = experiment: Antiproliferative activity against human PANC1 cells assessed as reduction in cell viability after 72 hrs; assay type: functional, cell-based; conditions: PANC-1, 72 h
SW1990 = experiment: Antiproliferative activity against human SW1990 cells assessed as reduction in cell viability; assay type: functional, cell-based
SK-BR-3 = experiment: Antiproliferative activity against human SKBR3 cells assessed as reduction in cell viability; assay type: functional, cell-based
HCT-116 = experiment: Antiproliferative activity against human HCT116 cells assessed as reduction in cell viability; assay type: functional, cell-based
NCI-H1299 = experiment: Antiproliferative activity against human NCI-H1299 cells assessed as reduction in cell viability; assay type: functional, cell-based
HepG2 = experiment: Antiproliferative activity against human HepG2 cells assessed as reduction in cell viability; assay type: functional, cell-based
HeLa = experiment: Antiproliferative activity against human HeLa cells assessed as reduction in cell viability; assay type: functional, cell-based
DU-145 = experiment: Antiproliferative activity against human DU145 cells assessed as reduction in cell viability; assay type: functional, cell-based
PC-3 [4] = experiment: Inhibition of colony formation in human PC3 cells at 50 nM after 1 week relative to control; assay type: functional; conditions: PC-3, 168 h
PC-3 [5] = experiment: Inhibition of colony formation in human PC3 cells at 250 nM after 1 week relative to control; assay type: functional; conditions: PC-3, 168 h
PC-3 [6] = experiment: Inhibition of colony formation in human PC3 cells after 1 week; assay type: functional, cell-based
PC-3 [7] = experiment: Induction of cell cycle arrest in human PC3 cells assessed as accumulation at G2/M phase after 24 hrs by flow cytometry; assay type: functional, cell-based
PC-3 [8] = experiment: Induction of cell cycle arrest in human PC3 cells assessed as accumulation at G1 phase at 50 nM after 24 hrs by flow cytometry (reference value: 56.46%); assay type: functional
PC-3 [9] = experiment: Induction of cell cycle arrest in human PC3 cells assessed as accumulation at S phase at 50 nM after 24 hrs by flow cytometry (reference value: 24.73%); assay type: functional
PC-3 [10] = experiment: Induction of cell cycle arrest in human PC3 cells assessed as accumulation at G2/M phase at 50 nM after 24 hrs by flow cytometry (reference value: 18.81%); assay type: functional
PC-3 [11] = experiment: Induction of cell cycle arrest in human PC3 cells assessed as accumulation at G1 phase at 100 nM after 24 hrs by flow cytometry (reference value: 56.46%); assay type: functional
PC-3 [12] = experiment: Induction of cell cycle arrest in human PC3 cells assessed as accumulation at S phase at 100 nM after 24 hrs by flow cytometry (reference value: 24.73%); assay type: functional
PC-3 [13] = experiment: Induction of cell cycle arrest in human PC3 cells assessed as accumulation at G2/M phase at 100 nM after 24 hrs by flow cytometry (reference value: 18.81%); assay type: functional
PC-3 [14] = experiment: Induction of cell cycle arrest in human PC3 cells assessed as accumulation at G1 phase at 250 nM after 24 hrs by flow cytometry (reference value: 56.46%); assay type: functional
PC-3 [15] = experiment: Induction of cell cycle arrest in human PC3 cells assessed as accumulation at S phase at 250 nM after 24 hrs by flow cytometry (reference value: 24.73%); assay type: functional
PC-3 [16] = experiment: Induction of cell cycle arrest in human PC3 cells assessed as accumulation at G2/M phase at 250 nM after 24 hrs by flow cytometry (reference value: 18.81%); assay type: functional
PC-3 [17] = experiment: Induction of cell cycle arrest at G2/M phase in human PC3 cells assessed as increase in cyclin B1 expression after 24 hrs by Western blot analysis; assay type: functional, cell-based
PC-3 [18] = experiment: Induction of cell cycle arrest at G2/M phase in human PC3 cells assessed as increase in CDC2 expression after 24 hrs by Western blot analysis; assay type: functional, cell-based
PC-3 [19] = experiment: Induction of apoptosis in human PC3 cells assessed as viable cells at 50 nM after 24 hrs by Annexin V-FITC/propidium iodide staining-based flow cytometry (reference value: 75.33%); assay type: functional; conditions: PC-3, 24 h, read-out: Activity
PC-3 [20] = experiment: Induction of apoptosis in human PC3 cells assessed as early apoptotic cells at 50 nM after 24 hrs by Annexin V-FITC/propidium iodide staining-based flow cytometry (reference value: 11.88%); assay type: functional
PC-3 [21] = experiment: Induction of apoptosis in human PC3 cells assessed as late apoptotic cells at 50 nM after 24 hrs by Annexin V-FITC/propidium iodide staining-based flow cytometry (reference value: 12.21%); assay type: functional
PC-3 [22] = experiment: Induction of apoptosis in human PC3 cells assessed as necrotic cells at 50 nM after 24 hrs by Annexin V-FITC/propidium iodide staining-based flow cytometry (reference value: 0.58%); assay type: functional
PC-3 [23] = experiment: Induction of apoptosis in human PC3 cells assessed as viable cells at 100 nM after 24 hrs by Annexin V-FITC/propidium iodide staining-based flow cytometry (reference value: 75.33%); assay type: functional; conditions: PC-3, 24 h, read-out: Activity
PC-3 [24] = experiment: Induction of apoptosis in human PC3 cells assessed as early apoptotic cells at 100 nM after 24 hrs by Annexin V-FITC/propidium iodide staining-based flow cytometry (reference value: 11.88%); assay type: functional
PC-3 [25] = experiment: Induction of apoptosis in human PC3 cells assessed as late apoptotic cells at 100 nM after 24 hrs by Annexin V-FITC/propidium iodide staining-based flow cytometry (reference value: 12.21%); assay type: functional
PC-3 [26] = experiment: Induction of apoptosis in human PC3 cells assessed as necrotic cells at 100 nM after 24 hrs by Annexin V-FITC/propidium iodide staining-based flow cytometry (reference value: 0.58%); assay type: functional
PC-3 [27] = experiment: Induction of apoptosis in human PC3 cells assessed as viable cells at 250 nM after 24 hrs by Annexin V-FITC/propidium iodide staining-based flow cytometry (reference value: 75.33%); assay type: functional; conditions: PC-3, 24 h, read-out: Activity
PC-3 [28] = experiment: Induction of apoptosis in human PC3 cells assessed as early apoptotic cells at 250 nM after 24 hrs by Annexin V-FITC/propidium iodide staining-based flow cytometry (reference value: 11.88%); assay type: functional
PC-3 [29] = experiment: Induction of apoptosis in human PC3 cells assessed as late apoptotic cells at 250 nM after 24 hrs by Annexin V-FITC/propidium iodide staining-based flow cytometry (reference value: 12.21%); assay type: functional
PC-3 [30] = experiment: Induction of apoptosis in human PC3 cells assessed as necrotic cells at 250 nM after 24 hrs by Annexin V-FITC/propidium iodide staining-based flow cytometry (reference value: 0.58%); assay type: functional
PC-3 [31] = experiment: Induction of apoptosis in human PC3 cells after 24 hrs by Annexin V-FITC/propidium iodide staining-based flow cytometry; assay type: functional, cell-based
PC-3 [32] = experiment: Induction of apoptosis in human PC3 cells assessed as reduction in caspase-3 expression after 24 hrs by Western blot analysis; assay type: functional, cell-based
PC-3 [33] = experiment: Induction of apoptosis in human PC3 cells assessed as reduction in PARP expression level after 24 hrs by Western blot analysis; assay type: functional, cell-based
PC-3 [34] = experiment: Induction of apoptosis in human PC3 cells assessed as increase in PARP cleavage after 24 hrs by Western blot analysis; assay type: functional, cell-based

IC50 (PC-3 [3]): 159 nM | IC50 (PANC-1): 197 nM | IC50 (SW1990): 41 to 188 nM | IC50 (SK-BR-3): 41 to 188 nM | IC50 (HCT-116): 41 to 188 nM | IC50 (NCI-H1299): 41 to 188 nM | IC50 (HepG2): 41 to 188 nM | IC50 (HeLa): 41 to 188 nM | IC50 (DU-145): 41 to 188 nM
SMILES: CCOC(=O)c1c(C)n2c3ccccc3c(=O)n2c2ccc3c(c12)OCO3
Activity (PC-3 [1]): Active | inhibition at 0.5 µM (PC-3 [2]): 62.8% | inhibition at 0.05 µM (PC-3 [4]): 85% | inhibition at 0.25 µM (PC-3 [5]): 98% | inhibition (PC-3 [6]): Dose-dependent effect | Activity (PC-3 [7]): Dose-dependent effect | Activity (PC-3 [8]): 55.12% | Activity (PC-3 [9]): 23.43% | Activity (PC-3 [10]): 21.45% | Activity (PC-3 [11]): 46.89% | Activity (PC-3 [12]): 22.46% | Activity (PC-3 [13]): 30.65% | Activity (PC-3 [14]): 14.06% | Activity (PC-3 [15]): 24.16% | Activity (PC-3 [16]): 61.78% | Activity (PC-3 [17]): Dose-dependent effect | Activity (PC-3 [18]): Dose-dependent effect | viability at 0.05 µM (PC-3 [19]): 34.7% | Activity (PC-3 [20]): 25.82% | Activity (PC-3 [21]): 37.02% | Activity (PC-3 [22]): 2.48% | viability at 0.1 µM (PC-3 [23]): 13% | Activity (PC-3 [24]): 18.52% | Activity (PC-3 [25]): 56.27% | Activity (PC-3 [26]): 12.2% | viability at 0.25 µM (PC-3 [27]): 4.73% | Activity (PC-3 [28]): 27.88% | Activity (PC-3 [29]): 62.42% | Activity (PC-3 [30]): 4.97% | Activity (PC-3 [31]): Dose-dependent effect | Activity (PC-3 [32]): Dose-dependent effect | Activity (PC-3 [33]): Dose-dependent effect | Activity (PC-3 [34]): Dose-dependent effect
